Reference: patent US20250136617A1 (The Regents of the University of Colorado, A Body Corporate, priority 2022, published 2025)
Like-named read-outs stand apart in the source and are kept apart here.

Experiments:
CXCR4 = CXCR4 (Homo sapiens, UniProt P61073); assay: β-arrestin recruitment, 384-well, Tango CXCR4-bla U2OS cells, normalized to SDF-1α; format: cell-based; set-up: host or cells: U2OS; conditions: for ß-arrestin recruitment Emax (%): normalized to maximal SDF-1α response; for Emax: U2OS
Procedure: Tango™ CXCR4-bla U2OS Cells (Invitrogen; K1779) were used for (β-arrestin recruitment assays and maintained as a monolayer culture in McCoy's 5a (Corning; 10-050-CV) supplemented with 10% dialyzed Fetal Bovine Serum (Gibco; 26400-044), 0.1 mM MEM Non-essential amino acids solution, 25 mM HEPES solution (Corning; 25-060-CI), 1 mM Sodium Pyruvate (Gibco; 11360-070), 200 μg/mL Zeocin selection reagent (Gibco; R25001), 50 μg/mL Hygromycin B (Gibco, 10687010), and 100 μg/mL Geneticin (G418 Sulfate) (Gibco, 10131035). U2OS cells were subcultured twice weekly by 0.05% Trypsin-EDTA treatment (Corning; 25-051-CI) and passaged to continue exponential growth phase for cell signaling assays. All cell cultures were maintained in cell culture incubators at 37° C. with 5% CO2. CHO-K1 CXCR4 cells (DiscoverX, Fremont, CA, USA) were used for cAMP inhibition assays and maintained as a monolayer culture in DMEM/F12 (Corning; 10-091-CV) supplemented with 10% Fetal Bovine Serum (Corning; 35-011-CV) and 100IU penicillin, […] streptomycin sulfate (Corning; 30-002-CI) and […] G418 (Gibco; 101310350. Cells were subculture 2 times weekly by o.o5% Trypsin-EDTA treatment (Corning; 25-051-CI) and passaged to continue exponential growth phase for cell signaling assays. All cell cultures were maintained in cell culture incubators at 37° C. with 5% CO2.CEM-CCRF cells (ATCC CCL-119) were used in both the migration and calcium flux assays and were cultured in growth media consisting of RPMI 1640 (Corning; 10-040-CV) supplemented with 10% Fetal Bovine Serum (Corning; 35-011-CV), and 100 IU penicillin, […] streptomycin sulfate (Corning; 30-002-CI). Cells were maintained in suspension and sub-cultured twice weekly to maintain cell densities between 0.8×10^6 cells/mL and 2.5×10^6 cells/mL to maintain exponential growth phase. Cells were harvested for use in migration and calcium flux assays at 2.0×10^6 cells/mL to 2.5×10^6 cells/mL and resuspended in assay media to desired density for respective experiments.
Tango™ CXCR4-bla U2OS Cells were resuspended in assay media consisting of DMEM (Corning; Corning, NY) supplemented with 1% dialyzed Fetal bovine serum, 0.1 mM MEM Non-essential amino acids solution, 25 mM HEPES solution (Corning; Corning, NY), 1 mM Sodium Pyruvate and 100 IU penicillin, […] streptomycin sulfate (Corning; Corning, NY) at a density of 3.0×10^5 cells/ml. Assay media FreeStyle 293 expression Medium (Gibco; 12338018) was used for testing the thiadiazine scaffold CXCR4 agonists. Cells suspension was dispensed at 30 μl per well into assay plate and incubated overnight in a cell culture incubator at 37° C. with 5% CO2. […] Following overnight incubation, LiveBlazer FRET B/G Loading Kit (Invitrogen; K1095) working reagent was prepared according to supplier guidelines and 6 μl of solution was dispensed into each well; 8 μL of solution for testing the thiadiazine scaffold CXCR4 agonists. Assay plate was covered and incubated in a dark place for two hours and Fluorescence Intensity was measured using the BMG LABTECH CLARIOstar Plus (BMG LABTECH Inc., Cary, NC) according to the LiveBlazer FRET B/G Loading Kit excitation and emission measurement guidelines.
Results are expressed as mean±SD for 3 to 5 independent experiments. Statistically significant differences in gene expression between two groups were assessed by Student's T-test, ANOVA with an appropriate post hoc test was be used for multiple comparisons. P<0.05 was considered to be statistically significant. All concentration response curves were analyzed to determine EC50 and Emax using the following equation:
where Y is the normalized response (0-100%), X is the log of concentration of compound tested, and the Hill slope is equal to 1.0% and 100% activity are specific to each assay. […]

[1] = test system: CEM-CCRF human lymphoblast cells; assay: Transwell migration assay in CEM-CCRF lymphoblasts; format: cell-based
Procedure: Thus, to confirm CXCR4 functional activity, UCUF-728 was evaluated in a 96 w transwell migration assay in CEM human lymphoblast cells.
CEM-CCRF (ATCC CCL-119) were suspended in RPMI 1640 (Corning; 10-040-CV) at 5.0×10^5 cells/mL and allowed to incubate in cell culture incubator at 37° C. with 5% CO2 for one hour. […] Plates were reassembled and placed in a cell culture incubator at 37° C. with 5% CO2 for three hours. After incubation, Multi-Screen plate was disassembled and 100 μl of solution was collected from compound receiver tray and transferred to 96 well luminescent plate (Thermo Scientific; 265302) and an equal volume of ATPLite Istep luminescence reagent (Perkin Elmer, Waltham, MA; 6016731) was added to each well. Luminescence was measured using the CLARIOstar Plus (BMG LABTECH Inc., Cary, NC).

[2] = normalized to SDF-1, read-out: TANGO β-arrestin EC50
[3] = normalized to SDF-1α, read-out: ß-arrestin recruitment EC50
[4] = Homo sapiens, read-out: Migration CEM EC50 (μM)
[5] = normalized to SDF-1, read-out: TANGO β-arrestin Emax (%)
[6] = Homo sapiens, read-out: Migration CEM EC50

Sequence of CXCR4 (P61073 whole entry): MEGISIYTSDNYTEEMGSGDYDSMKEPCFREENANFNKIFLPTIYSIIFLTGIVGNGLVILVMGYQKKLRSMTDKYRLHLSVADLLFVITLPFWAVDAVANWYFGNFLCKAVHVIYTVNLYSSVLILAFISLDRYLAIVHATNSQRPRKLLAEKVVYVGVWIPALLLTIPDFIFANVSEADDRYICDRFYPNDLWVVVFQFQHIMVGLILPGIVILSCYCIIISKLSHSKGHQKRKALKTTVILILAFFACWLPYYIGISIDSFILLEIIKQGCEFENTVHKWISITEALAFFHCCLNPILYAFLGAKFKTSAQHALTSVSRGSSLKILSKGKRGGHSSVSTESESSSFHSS

Row | Structure (SMILES) | EC50 (CXCR4; [2]) [µM] | Emax (CXCR4; [5]) [%] | further results
1 | COc1ccccc1-c1nnc2n1N=C(c1ccc([N+](=O)[O-])cc1)CS2 | – | – | EC50 (CXCR4; [3]): > 80 µM
2 | CCOc1ccccc1-c1nnc2n1N=C(c1ccc(OC)cc1)CS2 [Entry 3] | < 5 | > 70 | Emax ([1]; Homo sapiens): 35 to 70%; EC50 [1, 4]: < 5 µM
3 | CCCCOc1ccc(C2=Nn3c(nnc3-c3ccccc3OC)SC2)cc1 [Entry 5] | < 5 | < 35 | EC50 [1, 4]: > 10 µM
4 | C=CCOc1ccc(C2=Nn3c(nnc3-c3ccccc3OCC)SC2)cc1 [Entry 6] | < 5 | > 70 | Migration CEM Emax (%) [1]: B (35 < B < 70); EC50 ([1]; read-out: Migration CEM EC50): < 5 µM
5 | C=CCOc1ccc(C2=Nn3c(nnc3-c3ccccc3OCC)SC2)cc1 [Entry 7] | < 5 | – | Migration CEM Emax (%) [1]: A (A ≥ 70); EC50 [1, 6]: < 5 µM; TANGO β-arrestin Emax (%) (CXCR4; normalized to SDF-1): A (A ≥ 70)
6 | COCCOc1ccc(C2=Nn3c(nnc3-c3ccccc3OC)SC2)cc1 [Entry 8] | < 5 | < 35 | Emax ([1]; Homo sapiens): < 35%; EC50 [1, 4]: < 5 µM
7 | CCOc1ccccc1-c1nnc2n1N=C(c1ccc(OC(F)(F)F)cc1)CS2 [Entry 10] | < 5 | > 70 | Emax ([1]; Homo sapiens): > 70%; EC50 [1, 4]: 5 to 50 µM
8 | CCOc1ccccc1-c1nnc2n1N=C(c1ccc(OC(F)F)cc1)CS2 [Entry 11] | < 5 | 35 to 70 | Emax ([1]; Homo sapiens): > 70%; EC50 [1, 4]: < 5 µM
9 | CCOc1ccccc1-c1nnc2n1N=C(c1ccc(N3CCCC3)cc1)CS2 [Entry 14] | < 5 | > 70 | Migration CEM Emax (%) [1]: B (35 < B < 70); EC50 [1, 6]: < 5 µM
10 | CCOc1ccccc1-c1nnc2n1N=C(c1ccc(N3CCCC3)cc1)CS2 [Entry 15] | < 5 | – | Migration CEM Emax (%) [1]: A (A ≥ 70); EC50 ([1]; read-out: Migration CEM EC50): < 5 µM; TANGO β-arrestin Emax (%) (CXCR4; normalized to SDF-1): A (A ≥ 70)
11 | CCOc1ccccc1-c1nnc2n1N=C(c1ccc(N3CCCCC3)cc1)CS2 [Entry 27] | > 10 | – | EC50 [1, 6]: > 10 µM
12 | CCOc1ccccc1-c1nnc2n1N=C(c1ccc3c(c1)CCCN3)CS2 [Entry 29] | < 5 | – | Migration CEM Emax (%) [1]: C (C ≤ 35); EC50 ([1]; read-out: Migration CEM EC50): 5 to 50 µM; TANGO β-arrestin Emax (%) (CXCR4; normalized to SDF-1): A (A ≥ 70)
13 | CCOc1ccccc1-c1nnc2n1N=C(c1ccc(NC(=O)C3CCCC3)cc1)CS2 [Entry 33] | > 10 | – | –
14 | CCOc1ccccc1-c1nnc2n1N=C(c1ccc(NCC(=O)O)cc1)CS2 [Entry 40a] | – | – | Emax ([1]; Homo sapiens): 23%; EC50 [1, 4]: 0.32 µM
15 | c1ccc(C2=Nn3c(nnc3-c3ccccc3)SC2)cc1 [Entry 50] | > 80 | – | –
16 | COc1ccc(C2=Nn3c(nnc3-c3ccccc3)SC2)cc1OC [Entry 52] | > 80 | – | –
17 | COc1ccc(C2=Nn3c(nnc3-c3ccccc3OC)SC2)c(OC)c1 [Entry 54] | < 5 | 35 to 70 | –
18 | COc1ccc(OC)c(-c2nnc3n2N=C(c2ccc(OC)c(OC)c2)CS3)c1 [Entry 56] | < 5 | – | TANGO β-arrestin Emax (%) (CXCR4; normalized to SDF-1): B (35 < B < 70)
19 | COc1cccc(-c2nnc3n2N=C(c2ccccc2)CS3)c1 [Entry 58] | > 80 | – | –
20 | COc1ccc(C2=Nn3c(nnc3-c3cccc(OC)c3)SC2)cc1 [Entry 60] | < 5 | 35 to 70 | –
21 | COc1cc(-c2nnc3n2N=C(c2ccccc2)CS3)cc(OC)c1OC [Entry 61] | > 80 | – | –
22 | COc1cc(-c2nnc3n2N=C(c2ccc(Br)cc2)CS3)cc(OC)c1OC [Entry 62] | < 5 | – | TANGO β-arrestin Emax (%) (CXCR4; normalized to SDF-1): B (35 < B < 70)
23 | COc1cccc(C2=Nn3c(nnc3-c3ccccc3OC)SC2)c1 [Entry 85] | – | – | EC50 (CXCR4; [3]): 10.7 µM; ß-arrestin recruitment Emax (%) (CXCR4): 40%
24 | CCOc1ccccc1-c1nnc2n1N=C(c1ccc(N3CCCC3)cc1)CS2 [compound 24] | – | – | Migration CEM Emax (%) [1]: A (A ≥ 70)

More lines, main results first:

Row | EC50 (CXCR4; [2]) [µM] | Emax (CXCR4; [5]) [%] | Structure (SMILES) | further results
25 | > 80 | – | COc1ccccc1-c1nnc2n1N=C(c1ccccc1)CS2 | –
26 | < 5 | – | COc1ccc(C2=Nn3c(nnc3-c3ccccc3OC)SC2)cc1 [Entry 1] | TANGO β-arrestin Emax (%) (CXCR4; normalized to SDF-1): B (35 < B < 70); EC50 (CXCR4; [3]): 0.054 µM; ß-arrestin recruitment Emax (%) (CXCR4): 45%
27 | < 5 | > 70 | COc1ccccc1-c1nnc2n1N=C(c1ccc(SC)cc1)CS2 [Entry 12] | Emax ([1]; Homo sapiens): 35 to 70%; EC50 [1, 6]: < 5 µM
28 | < 5 | > 70 | COc1ccccc1-c1nnc2n1N=C(c1ccc(N(C)C)cc1)CS2 [Entry 13] | Emax ([1]; Homo sapiens): 35 to 70%; EC50 [1, 6]: < 5 µM; Emax (CXCR4; read-out: ß-arrestin recruitment Emax (%)): 91%; EC50 (CXCR4; [3]): 0.06 µM
29 | 5 to 50 | – | COc1ccccc1-c1nnc2n1N=C(c1ccc(N3CCOCC3)cc1)CS2 [Entry 16] | Migration CEM Emax (%) [1]: A (A ≥ 70); EC50 ([1]; read-out: Migration CEM EC50): 5 to 50 µM; TANGO β-arrestin Emax (%) (CXCR4; normalized to SDF-1): A (A ≥ 70)
30 | < 5 | 35 to 70 | COc1ccccc1-c1nnc2n1N=C(c1ccc(C)cc1)CS2 [Entry 17] | –
31 | < 5 | 35 to 70 | CCc1ccc(C2=Nn3c(nnc3-c3ccccc3OC)SC2)cc1 [Entry 18] | –
32 | 5 to 50 | – | CCCCc1ccc(C2=Nn3c(nnc3-c3ccccc3OC)SC2)cc1 [Entry 19] | TANGO β-arrestin Emax (%) (CXCR4; normalized to SDF-1): C (C ≤ 35); EC50 (CXCR4; [3]): 14.1 µM; ß-arrestin recruitment Emax (%) (CXCR4): 12%
33 | 5 to 50 | > 70 | COc1ccccc1-c1nnc2n1N=C(c1ccc(-c3ccccc3)cc1)CS2 [Entry 20] | –
34 | 5 to 50 | > 70 | COc1ccccc1-c1nnc2n1N=C(c1ccc(N3CCOCC3)cc1)CS2 [Entry 25] | –
35 | > 10 | – | CCOc1ccccc1-c1nnc2n1N=C(c1ccc(N)cc1)CS2 [Entry 26] | –
36 | < 5 | 35 to 70 | CCOc1ccccc1-c1nnc2n1N=C(c1ccc(N3CCC3)cc1)CS2 [Entry 28] | –
37 | < 5 | – | CCOc1ccccc1-c1nnc2n1N=C(c1ccc(NC(C)=O)cc1)CS2 [Entry 30] | EC50 ([1]; read-out: Migration CEM EC50): > 10 µM; TANGO β-arrestin Emax (%) (CXCR4; normalized to SDF-1): C (C ≤ 35); EC50 (CXCR4; [3]): > 10 µM
38 | > 10 | – | CCOc1ccccc1-c1nnc2n1N=C(c1ccc(NC(=O)C(C)C)cc1)CS2 [Entry 31] | EC50 ([1]; read-out: Migration CEM EC50): > 10 µM; EC50 (CXCR4; [3]): > 10 µM
39 | < 5 | > 70 | CCOc1ccccc1-c1nnc2n1N=C(c1ccc(NC3CCC3)cc1)CS2 [Entry 44] | –
40 | 5 to 50 | 35 to 70 | COc1ccc(C2=Nn3c(nnc3-c3ccccc3)SC2)cc1 [Entry 51] | –
41 | < 5 | 35 to 70 | COc1ccc(C2=Nn3c(nnc3-c3ccccc3OC)SC2)cc1 [Entry 55] | –
42 | < 5 | 35 to 70 | CCOc1ccccc1-c1nnc2n1N=C(c1ccc(OC)c(OC)c1)CS2 [Entry 57] | –
43 | > 80 | – | COc1ccc(-c2nnc3n2N=C(c2ccccc2)CS3)cc1 [Entry 59] | –
